Data as given in US10047036B2, “Method for the synthesis of hydroxy-triglycerides and uses thereof for the prevention and treatment of diseases” (UNIVERSITAT DE LES ILLES BALEARS, priority 2014, dated 2018).
pIC50: −log10 of the molar value.

Legend:
[1] = system: transgenic rat with 5 mutations of human familial Alzheimer's (Tag); test: radial maze test in transgenic rats with Alzheimer's; assay type: in vivo; details: for Errors made in the radial maze: Tag rats, 50 mg/kg p.o. daily, 100% = healthy animals without Alzheimer's
Method: In order to study Alzheimer's disease a transgenic rat model was used with 5 mutations which appear in human familiar Alzheimer's (symbolised as Tag, and abbreviated Tg). This model of Alzheimer's is very severe, and the animals already show a cognitive deficit at 2 months of age. To carry out this experiment, both young rats (of 3 months of age) and aged rats (of 10 months of age) were used and treated for 3 months with the hydroxy-triglycerides of the present invention (50 mg/kg day, p.o.). The rats were subjected to a low-calorie diet so that they would be hungry and carry out a test in a radial maze, in which food was placed in 4 of the device's 8 arms (asymmetrically), quantifying the number of errors committed until the exercise was completed. […]
The control animals were treated with vehicle (saline) and the rest with 50 mg/kg (p.o.) daily of the indicated compound.

[2] = system: Drosophila melanogaster flies with human Alzheimer's genes (F1); test: survival of Drosophila melanogaster with Alzheimer's disease; assay type: in vivo; details: 100 μM in the food
From the text: To investigate the effect of TGMs on the cognitive parameters and aging, another model of Alzheimer's disease in Drosophila melanogaster flies with genetic alterations corresponding to human Alzheimer's was used. The flies used were the first generation (F1) from the crossing of UAS-Aβ human-Tau 2N4R (stock 33771) flies with elav-GAL4^c155 (stock 8760) flies. This model which over-expresses the two proteins typical of Alzheimer's disease is complementary to the model described above and very convenient, as these animals have a life of approximately 1 month and it is possible to add the compounds to the food of the larvae to see the preventative effect thereof throughout their entire life. Also, it allows the effect on aging to be seen and on the life expectancy of these animals (survival over time).
In this sense, the flies with human Alzheimer's (F1) present a greater cognitive decline in comparison to the “Oregon” fly strain, which are the healthy controls. To evaluate the effect of the hydroxy-triglycerides of the invention, each one of the TGMs (100 μM) was added to the food consumed by these animals. It was possible to observe a positive effect of same in the geotaxis test of climbing (FIG. 7B and Table 11). In this test, the behavioural motor activity was investigated in 25 flies treated with vehicle or one of the TGMs. In this study, the flies were introduced in a glass cylinder with an opening closed with a sponge so air could enter. The flies were taken to the ground (bottom) of the pipe by giving it a sharp blow on a table and their behaviour was timed during 20 seconds. Once this time was over, the number of flies which had passed (crossed) a mark at 15 cm from the bottom was counted (geotaxis test). Usually, more than 90% of healthy young flies passed the line within 20 seconds. However, with aging or with Alzheimer's disease, the behavioural motor activity (percentage of flies which crossed the line) declined, compared to normal flies. In this context, the treatments with the hydroxy-triglycerides of the present invention avoided this cognitive decline associated to Alzheimer's, making the cognitive capacity of the diseased flies similar to that of the healthy flies. […] This positive effect on the cognitive parameters in flies was also shown by other TGMs (Table 11). In fact, in the control group with Alzheimer, no fly crossed the line as of 23 days of age. In this sense, the different hydroxy-triglycerides induced marked increases in the geotaxis test values, with increases in the cognitive values which reached up to 36 days, 50% more in the life of the flies with Alzheimer's (Table 11).

[3] = system: MRC5 (non-tumour) human fibroblasts; test: growth inhibition of normal non-tumour cells, 72 h incubation; assay type: cell-based; details: 72 hours of incubation
Method: (§1) On the one hand, human cells of different types of cancer were used. The cells were incubated at 37° C. and 5% of CO2 in air, in culture medium RPMI1640 or DMEM with bovine foetal serum (10%) and other supplements and in the presence or absence of the triglycerides of the present invention at different concentrations during 72 hours. It was possible to observe that the hydroxy-triglycerides of the invention have a high efficacy against the growth of human tumour cells, but not against the growth of normal non-tumour cells (human fibroblasts, MRC5).

A549 (lung) = test: growth inhibition of human tumour cells, 72 h incubation; assay type: cell-based; details: 72 hours of incubation
Method: as §1

U87M (glioma) = test: as above; assay type: cell-based; details: 72 hours of incubation
Method: as §1

MIA-PaCa-2 (pancreas) = test: as above; assay type: cell-based; details: 72 hours of incubation
Method: as §1

BXPC3 (pancreas) = test: as above; assay type: cell-based; details: 72 hours of incubation
Method: as §1

[4] = system: Jurkat (lymphoblastic leukaemia); test: as above; assay type: cell-based; details: 72 hours of incubation
Method: as §1

NCI1975D (lung) = test: as above; assay type: cell-based; details: 72 hours of incubation
Method: as §1

SH-SY5Y (neuroblastoma) = test: as above; assay type: cell-based; details: 72 hours of incubation
Method: as §1

HT-29 (colon) = test: as above; assay type: cell-based; details: 72 hours of incubation
Method: as §1

HepG2 (liver carcinoma) = test: as above; assay type: cell-based; details: 72 hours of incubation
Method: as §1

HeLa (cervix) = test: as above; assay type: cell-based; details: 72 hours of incubation
Method: as §1

[5] = system: HL-60 (myeloblastic leukaemia); test: as above; assay type: cell-based; details: 72 hours of incubation
Method: as §1

MDA-MB231 (breast) = test: as above; assay type: cell-based; details: 72 hours of incubation
Method: as §1

PC3 (prostate) = test: as above; assay type: cell-based; details: 72 hours of incubation
Method: as §1

SF767 (glioma) = test: as above; assay type: cell-based; details: 72 hours of incubation
Method: as §1

SMILES	Errors made in the radial maze [1] [%]	Survival: age at which all the animals in the group died [2] [days]	pIC50 [3]	pIC50 (A549 (lung))	pIC50 (U87M (glioma))	pIC50 (MIA-PaCa-2 (pancreas))	pIC50 (BXPC3 (pancreas))	pIC50 [4]	pIC50 (NCI1975D (lung))	pIC50 (SH-SY5Y (neuroblastoma))	pIC50 (HT-29 (colon))	pIC50 (HepG2 (liver carcinoma))	pIC50 (HeLa (cervix))	pIC50 [5]	pIC50 (MDA-MB231 (breast))	pIC50 (PC3 (prostate))	pIC50 (SF767 (glioma))	also measured
CCC=CCC=CCC=CCC=CCC=CCCC(O)C(=O)OCC(COC(=O)C(O)CCC=CCC=CCC=CCC=CCC=CCC)OC(=O)C(O)CCC=CCC=CCC=CCC=CCC=CCC (stereo not drawn) [TGM5, 1,2,3-tri(2′-hydroxy-eicosa-5′,8′,11′,14′,17′-pentaenoyl)glycerol]	121.3	31	< 3.30	5.40	4.37	4.64	4.77	5.05	4.85	4.54	5.10	4.28	4.72	4.89	4.74	4.68	4.59	
CCCCCC=CCC=CCCCCCCC(O)C(=O)OCC(COC(=O)C(O)CCCCCCC=CCC=CCCCCC)OC(=O)C(O)CCCCCCC=CCC=CCCCCC (stereo not drawn) [TGM2, 1,2,3-tri(2′-hydroxy-octadec-9′,12′-dienoyl)glycerol]	143.2	33	< 3.30	5.70	4.25	4.11	4.51	4.17	4.27	4.13	3.88	4.60	3.83	3.94	4.24	4.38	4.51	
CCC=CCC=CCC=CCC=CCC=CCC=CCC(O)C(=O)OCC(COC(=O)C(O)CC=CCC=CCC=CCC=CCC=CCC=CCC)OC(=O)C(O)CC=CCC=CCC=CCC=CCC=CCC=CCC (stereo not drawn) [TGM6, 1,2,3-tri(2′-hydroxy-docosa-4′,7′,10′,13′,16′,19′-hexanoyl)glycerol]	84.7	39	< 3.30	6.00	4.44	4.54	4.74	4.60	4.68	5.15	4.47	4.52	4.92	5.22	5.05	5.30	4.39	number of errors in the radial maze (FIG. 7A) ([1]; young and aged Tg rats, 3 months, 50 mg/kg day p.o., errors of first week of tests = 100%): below 100%
CCC=CCC=CCC=CCCCCCCC(O)C(=O)OCC(COC(=O)C(O)CCCCCCC=CCC=CCC=CCC)OC(=O)C(O)CCCCCCC=CCC=CCC=CCC (stereo not drawn) [TGM3A, 1,2,3-tri(2′-hydroxy-octadec-9′,12′,15′-trienoyl)glycerol]	134.5	40	< 3.30	4.37	4.51	3.85	4.10	4.02	4.19	4.41	3.73	4.38	3.79	4.24	3.94	3.92	4.24	
CCCCCCCCC=CCCCCCCC(O)C(=O)OCC(COC(=O)C(O)CCCCCCC=CCCCCCCCC)OC(=O)C(O)CCCCCCC=CCCCCCCCC (stereo not drawn) [TGM1, 1,2,3-tri(2′-hydroxy-octadec-9′-enoyl)glycerol]	128.9	45	< 3.30	4.54	3.59	3.84	3.68	4.49	3.53	3.89	4.03	4.06	3.74	3.61	3.89	3.62	3.55	
CCCCCC=CCC=CCC=CCC=CCCC(O)C(=O)OCC(COC(=O)C(O)CCC=CCC=CCC=CCC=CCCCCC)OC(=O)C(O)CCC=CCC=CCC=CCC=CCCCCC (stereo not drawn) [TGM4, 1,2,3-tri(2′-hydroxy-eicosa-5′,8′,11′,14′-tetraenoyl)glycerol]	101.0	44	< 3.30	6.05	4.77	4.37	4.14	3.82	5.00	4.57	4.96	4.66	5.22	4.49	4.44	4.74	4.68	
CCCCCC(O)C(=O)OCC(COC(=O)C(O)CCCCC)OC(=O)C(O)CCCCC (stereo not drawn) [TGM0, 1,2,3-tri(2′-hydroxyheptanoyl)glycerol]	153.1	30																pIC50 ([3]; Homo sapiens, MRC5): < 3.30; pIC50 (A549 (lung); Homo sapiens, A549): 3.92; pIC50 (U87M (glioma); Homo sapiens): 3.47; pIC50 (MIA-PaCa-2 (pancreas); Homo sapiens, MIA PaCa-2): 3.55; pIC50 (BXPC3 (pancreas); Homo sapiens, BXPC-3): 3.53; pIC50 ([4]; Homo sapiens, Jurkat): 3.75; pIC50 (NCI1975D (lung); Homo sapiens): 3.49; pIC50 (SH-SY5Y (neuroblastoma); Homo sapiens, SH-SY5Y): 3.60; pIC50 (HT-29 (colon); Homo sapiens, HT-29): 3.58; pIC50 (HepG2 (liver carcinoma); Homo sapiens, HepG2): 3.49; pIC50 (HeLa (cervix); Homo sapiens, HeLa): 3.70; pIC50 (MDA-MB231 (breast); Homo sapiens, MDA-MB-231): 3.60; pIC50 (PC3 (prostate); Homo sapiens): 3.64; pIC50 (SF767 (glioma); Homo sapiens, SF767): 3.56
CCCCCC=CCC=CCC=CCCCC(O)C(=O)OCC(COC(=O)C(O)CCCC=CCC=CCC=CCCCCC)OC(=O)C(O)CCCC=CCC=CCC=CCCCCC (stereo not drawn) [TGM3G, 1,2,3-tri(2′-hydroxy-octadec-6′,9′,12′-trienoyl)glycerol]	156.8	31	< 3.30	4.41	4.55	3.91	4.09	3.76		3.81	4.23	3.73	4.12	4.38	3.73	4.03	4.34	
